{
  "source": "patent US20260041620A1",
  "about": "“NOVEL AMINO ACID BASED SALTS, COMPOSITIONS AND METHODS FOR TREATING SKIN AND IMPROVING SKIN REJUVENATION AND LONGEVITY” (Sytheon Ltd, priority 2023, published 2026)",
  "key": {"FABP-5": {"molecular_target": "T1, FABP-5 (Homo sapiens, UniProt Q01469)", "T1 construct": "purchased Raybiotech 268-10276-1", "T1 sequence (Q01469 whole entry)": "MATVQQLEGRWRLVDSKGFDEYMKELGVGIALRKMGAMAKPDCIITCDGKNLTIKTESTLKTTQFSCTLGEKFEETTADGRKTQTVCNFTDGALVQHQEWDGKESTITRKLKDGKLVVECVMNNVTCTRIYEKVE", "assay": "FABP-5 ELISA inhibitory assay", "type": "biochemical"}, "HDAC 4": {"molecular_target": "HDAC 4 (Homo sapiens, UniProt P56524)", "sequence (P56524 whole entry)": "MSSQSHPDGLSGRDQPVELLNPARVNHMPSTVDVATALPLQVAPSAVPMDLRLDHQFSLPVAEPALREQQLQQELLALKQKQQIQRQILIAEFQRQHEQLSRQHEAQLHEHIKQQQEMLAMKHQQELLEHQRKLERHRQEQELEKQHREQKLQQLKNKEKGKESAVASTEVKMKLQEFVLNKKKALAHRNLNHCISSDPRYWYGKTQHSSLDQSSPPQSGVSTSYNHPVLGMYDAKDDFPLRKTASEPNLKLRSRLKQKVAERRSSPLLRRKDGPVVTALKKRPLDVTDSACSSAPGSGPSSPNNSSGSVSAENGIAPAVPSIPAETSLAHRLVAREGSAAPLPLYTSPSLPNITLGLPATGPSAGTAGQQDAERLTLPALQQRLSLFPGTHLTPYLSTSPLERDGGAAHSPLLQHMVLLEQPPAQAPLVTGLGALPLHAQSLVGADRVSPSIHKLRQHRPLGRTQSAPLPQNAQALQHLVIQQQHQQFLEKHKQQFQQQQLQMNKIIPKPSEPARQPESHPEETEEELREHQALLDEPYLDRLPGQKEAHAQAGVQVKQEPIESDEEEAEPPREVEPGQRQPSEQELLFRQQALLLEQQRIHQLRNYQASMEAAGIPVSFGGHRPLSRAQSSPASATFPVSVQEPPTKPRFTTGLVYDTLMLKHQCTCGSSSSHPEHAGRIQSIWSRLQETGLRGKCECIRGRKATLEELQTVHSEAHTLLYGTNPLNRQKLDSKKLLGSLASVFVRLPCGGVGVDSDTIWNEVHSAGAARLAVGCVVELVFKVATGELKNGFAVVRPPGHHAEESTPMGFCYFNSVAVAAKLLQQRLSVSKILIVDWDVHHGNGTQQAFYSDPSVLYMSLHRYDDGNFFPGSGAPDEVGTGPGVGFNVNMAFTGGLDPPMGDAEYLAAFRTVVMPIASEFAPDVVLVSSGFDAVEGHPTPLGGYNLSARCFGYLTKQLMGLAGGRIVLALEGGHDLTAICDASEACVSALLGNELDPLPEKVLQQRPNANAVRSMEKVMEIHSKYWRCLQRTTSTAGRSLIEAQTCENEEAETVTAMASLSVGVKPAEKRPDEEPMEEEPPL", "assay": "HDAC 4 fluorogenic assay kit", "quoted_text": "Test materials were stored at room temperature and stock solutions were prepared at 20 mg/ml in DMSO. Further dilutions were made in sterile distilled water immediately before being added to the reaction mixture containing a substrate, and the reaction was triggered by the addition of purified HDAC enzymes, Double distilled water was the negative control and trichostatin (1.5 ug/ml) was used as a positive control for validation of each study. The test procedure was as directed in the assay kits. The products of the reactions were measured by fluorometry at ex/em 350/450 nm using multi-well plate fluorometer Cytofluor 4000 (Applied Biosystem, Foster City, CA) or using SpectraMax i3× Multi-Mode Detection Platform from Molecular Devices (Sunnyvale, CA).\nStatistical significance was assessed with a two-tail Student test. Deviations of ≤20% as compared to water control with p values below 0.05 were considered statistically significant."}, "FAAH": {"molecular_target": "T2, FAAH (Homo sapiens, UniProt O00519)", "T2 sequence (O00519 1-579)": "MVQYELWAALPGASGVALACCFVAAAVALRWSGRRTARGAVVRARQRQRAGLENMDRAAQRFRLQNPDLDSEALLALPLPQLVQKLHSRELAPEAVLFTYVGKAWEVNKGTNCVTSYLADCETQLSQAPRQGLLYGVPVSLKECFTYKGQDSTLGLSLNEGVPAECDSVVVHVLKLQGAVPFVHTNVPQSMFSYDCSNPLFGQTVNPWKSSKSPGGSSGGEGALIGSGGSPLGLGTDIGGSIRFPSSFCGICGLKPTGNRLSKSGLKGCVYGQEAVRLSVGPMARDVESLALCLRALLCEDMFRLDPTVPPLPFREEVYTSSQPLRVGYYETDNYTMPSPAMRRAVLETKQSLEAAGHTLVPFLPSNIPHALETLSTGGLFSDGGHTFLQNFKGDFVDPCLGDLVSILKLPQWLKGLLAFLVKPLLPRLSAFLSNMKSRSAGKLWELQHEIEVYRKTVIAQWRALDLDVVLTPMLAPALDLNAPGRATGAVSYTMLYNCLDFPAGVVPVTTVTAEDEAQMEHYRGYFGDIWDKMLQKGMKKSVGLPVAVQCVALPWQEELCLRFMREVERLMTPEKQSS", "assay": "FAAH fluorescence-based inhibitory assay", "type": "biochemical"}, "FABP-3": {"molecular_target": "T3, FABP-3 (Homo sapiens, UniProt P05413)", "T3 construct": "purchased Neovateinbio PT-452", "T3 sequence (P05413 whole entry)": "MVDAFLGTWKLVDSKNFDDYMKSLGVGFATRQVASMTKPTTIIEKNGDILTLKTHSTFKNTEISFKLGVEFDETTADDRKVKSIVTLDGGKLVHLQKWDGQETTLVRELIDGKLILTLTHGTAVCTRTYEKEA", "assay": "FABP-3 ELISA inhibitory assay", "type": "biochemical"}, "MAGL": {"molecular_target": "T4, MAGL (Homo sapiens, UniProt Q99685)", "T4 construct": "purchased Cayman 10007812", "T4 sequence (Q99685 1-303)": "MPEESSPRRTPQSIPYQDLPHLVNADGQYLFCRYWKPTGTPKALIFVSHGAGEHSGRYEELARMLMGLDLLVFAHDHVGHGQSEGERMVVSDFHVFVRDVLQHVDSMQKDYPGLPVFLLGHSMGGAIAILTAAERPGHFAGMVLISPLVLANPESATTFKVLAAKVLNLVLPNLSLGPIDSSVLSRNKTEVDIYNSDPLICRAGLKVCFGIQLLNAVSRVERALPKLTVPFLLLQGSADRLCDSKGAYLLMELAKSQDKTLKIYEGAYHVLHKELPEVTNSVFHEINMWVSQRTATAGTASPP", "assay": "MAGL inhibitory assay", "type": "biochemical", "description": "Each study was performed in duplicate and the results averaged.\nThe final concentration in each well was 10 μl of sample, 5.6 μM MAGL (Cayman Catalog #10007812) and 23.6 μM 2-Arachidonoyl Glycerol (Cayman catalog #62160)."}},
  "data": [
    {"substance": "calcium dilysinate [Ca dilysinate]", "values": [
      {"measurement": "FABP-5 IC50", "setting": "FABP-5", "result": 871.4, "unit": "µg/mL"},
      {"measurement": "HDAC 4 activity, % of water-treated controls", "setting": "HDAC 4; 25 ug/ml", "result": 109, "unit": "%"},
      {"measurement": "HDAC 4 activity, % of water-treated controls", "setting": "HDAC 4; 50 ug/ml", "result": 101, "unit": "%"},
      {"measurement": "HDAC 4 activity, % of water-treated controls", "setting": "HDAC 4; 100 ug/ml", "result": 107, "unit": "%"},
      {"measurement": "FAAH IC50", "setting": "FAAH", "result": 445.1, "unit": "µg/mL"},
      {"measurement": "FABP-3 IC50", "setting": "FABP-3", "result": 208.6, "unit": "µg/mL"},
      {"measurement": "MAGL IC50", "setting": "MAGL", "result": 856.0, "unit": "µg/mL"}
    ]}
  ]
}
